The source of these data is patent US20260166162A1, “CARBON CHAIN SUBSTANCE FOR REGULATING TRANSMEMBRANE TRANSPORT AND FLUIDITY OF CELL MEMBRANES, AND PREPARATION AND USE THEREOF” (priority 2022, published 2026).

Read-outs that look alike come from different tables or passages of the source.

One test has as its system Escherichia coli. The test is described as follows: Bacteriostasis/sterilization test (plate count). The format is cell-based.
The test system of another test is Staphylococcus aureus. The test is described as follows: Bacteriostasis/sterilization test (plate count). The format is cell-based.
In test [1] the test system is Methicillin-resistant Staphylococcus aureus. The test is described as follows: Bacteriostasis/sterilization test (plate count). The format is cell-based.
The next test has as its system Streptococcus pneumoniae. The test is described as follows: Bacteriostasis/sterilization test (plate count). The format is cell-based.
The next test relates to Klebsiella pneumoniae. Nature of the test: Bacteriostasis/sterilization test (plate count). It is filed as cell-based.
The test system of the next test is Pseudomonas aeruginosa. Nature of the test: Bacteriostasis/sterilization test (plate count). It is filed as cell-based.
The next test deals with H7N9 pseudovirus. The format is cell-based, Influenza pseudovirus H7N9-Fluc.
Another test concerns H5N1 pseudovirus. The format is cell-based, Influenza pseudovirus H5N1-Fluc.
For the next test, the system named is HIV pseudovirus. The format is cell-based, HIV pseudovirus HIV18A-41.
A further test relates to SARS-CoV-2 pseudovirus. The format is cell-based, SARS-CoV-2 pseudovirus B.1.526.2.
The subject of test [2] is SARS-CoV-2 pseudovirus (B.1.526.2). The format is cell-based. To be noted: n=3.
A further test concerns Neocopyovirus. It is filed as in vivo. The settings on record: 1 mM; n=3.
A further test concerns 293T cells. Nature of the test: Cellular phagocytosis of DiD-loaded lipid vesicles (nano-drugs) by 293T cells (Example II-51, Table II-29). It is filed as cell-based. The settings on record: 293T cells pretreated 4 h, DiD lipid vesicles 2 h, n=3, untreated control 226.46 ± 1.26.
For a further test, the system named is Hela cells. Nature of the test: Cell membrane fluidity (Laurdan fluorescence recovery) in Hela cells. The format is cell-based.
Test [3] concerns influenza pseudovirus H7N9-Fluc. Nature of the test: microbe, parasite or virus in culture. To be noted: n=3. The format is cell-based.
For another test, the system named is HIV pseudovirus (18A-41). It is filed as cell-based. The settings on record: 293T cells pretreated 4 h, n=3.

As to `CCCCCCCC/C=C\CCCCCCCC(=O)OC(C)C(N)C(=O)O` (stereo not drawn), the “Inhibition rate (%)” value (with Escherichia coli (0.035 mM (Table 25)); in the test with Staphylococcus aureus (0.035 mM (Table 25)); in [1] (0.035 mM (Table 25)); in the test on Streptococcus pneumoniae (0.035 mM (Table 25)); in the test on Klebsiella pneumoniae (0.035 mM (Table 25)); with Pseudomonas aeruginosa (0.035 mM (Table 25))) was 99% in each case. Further, the inhibition rate result in the test with Staphylococcus aureus (concentration 0.035 mM) is “greater than 99%”. For the same molecule, the IC50 with Staphylococcus aureus (read-out: half inhibition concentration) turned out to be 9 µM. Besides, the “Sterilization rate (%)” value with H7N9 pseudovirus, with H5N1 pseudovirus, with HIV pseudovirus and in the test on SARS-CoV-2 pseudovirus was 99% throughout.
As for `CCCCCCCC(=O)OCC1OC(O)C(O)C(O)C1O` (stereo not drawn), the “Sterilization rate (%)” value is recorded as over 99% with Escherichia coli (9 mM, 2 h); over 99% in test [1] (9 mM, 2 h, listed as printed as Methicillin-resistant Streptococcus pneumoniae); over 99% in the test with Streptococcus pneumoniae (9 mM, 2 h); over 99% with Klebsiella pneumoniae (9 mM, 2 h); over 99% with Pseudomonas aeruginosa (9 mM, 2 h). For the same molecule, in the test with Staphylococcus aureus (2 h, read-out: half maximal inhibition concentration), the IC50 was determined as 4500 µM. The inhibition rate result with Staphylococcus aureus (concentration 72 mM-9 mM, 2 h) is given as “greater than 99%”.
Consider `CCCCCC=CCC=CCCCCCCCC(=O)OCC(N)C(=O)O` (stereo not drawn) [Serine-LA], for which the “Inhibition rate (%)” value in test [2] (2 nM) is recorded as 60.54 ± 5.59%; in test [2] (5 nM), 79.66 ± 5.97%; in [2] (10 nM) it was 78.34 ± 4.87%; in [2] (50 nM) it was 77.33 ± 4.56%; in test [2] (100 nM) it was 73.66 ± 1.33%; in test [2] (1 μM) it was -102.33 ± 4.36%. In addition, the figures for the “Inhibition rate (%)” value in [2] (10 μM), in test [2] (50 μM) and in test [2] (100 μM) were 54.26 ± 0.53%, 51.36 ± 0.87% and 93.68 ± 0.73%, respectively. Besides, the Fluorescence intensity in the test with Neocopyovirus stood at 2.8 ± 0.56; in the test with 293T cells (2 nM), 89.36 ± 0.21; in the test with 293T cells (5 nM) it was 46.06 ± 0.02; with 293T cells (10 nM), 49.05 ± 0.22; with 293T cells (50 nM), 51.34 ± 0.32; in the test on 293T cells (100 nM), 59.65 ± 0.54. For the same molecule, the Fluorescence intensity with 293T cells (1 uM) was 458.20 ± 0.55; with 293T cells (10 uM), 103.58 ± 0.71; with 293T cells (50 uM) it was 110.15 ± 0.41; in the test with 293T cells (100 uM) it was 14.31 ± 0.13.
As for `CCCCCCCC(=O)O` [n-octanoic acid], the “Fluorescence recovery rate %” value in the test on Hela cells (2 nM, 20 s) was 65.57%; in the test on Hela cells (2 nM, 40 s), 66.78%; with Hela cells (2 nM, 60 s), 66.54%; in the test with Hela cells (2 nM, 80 s), 67.22%; in the test with Hela cells (5 nM, 20 s), 66.75%; with Hela cells (5 nM, 40 s), 67.05%. Further, the “Fluorescence recovery rate %” value was determined as 67.59% with Hela cells (5 nM, 60 s); 66.98% with Hela cells (5 nM, 80 s); 64.02% in the test on Hela cells (10 nM, 20 s); 65.23% with Hela cells (10 nM, 40 s); 65.45% in the test with Hela cells (10 nM, 60 s); 66.51% in the test with Hela cells (10 nM, 80 s). The “Fluorescence recovery rate %” value is 67.32% with Hela cells (50 nM, 20 s); 67.94% in the test with Hela cells (50 nM, 40 s); 68.02% in the test on Hela cells (50 nM, 60 s); 68.65% with Hela cells (50 nM, 80 s); 64.31% in the test on Hela cells (50 μM, 20 s); 69.09% with Hela cells (50 μM, 40 s). Besides, the “Fluorescence recovery rate %” value in the test with Hela cells (50 μM, 60 s) is 73.41%; in the test with Hela cells (50 μM, 80 s) it was 78.32%; with Hela cells (100 μM, 20 s) it was 66.15%; in the test with Hela cells (100 μM, 40 s), 71.58%; with Hela cells (100 μM, 60 s), 75.11%; in the test with Hela cells (100 μM, 80 s), 79.84%. Moreover, the Fluorescence intensity amounted to 5.8 ± 0.76 with Neocopyovirus; 157.30 in the test with 293T cells (2 nM); 108.56 in the test on 293T cells (5 nM); 83.70 in the test with 293T cells (10 nM); 76.25 in the test on 293T cells (50 nM); 106.35 with 293T cells (100 nM). The Fluorescence intensity in the test with 293T cells (1 uM) was found to be 141.79; in the test with 293T cells (10 uM) it was 124.85; in the test with 293T cells (50 uM), 64.86; in the test with 293T cells (100 uM), 36.35 ± 6.23.
On to `O=C(O)CCCCCCC(=O)O` [octanedioic acid], for which the “Fluorescence recovery rate %” value worked out at 63.58% with Hela cells (2 nM, 20 s); 64.25% in the test with Hela cells (2 nM, 40 s); 65.77% in the test on Hela cells (2 nM, 60 s); 65.12% in the test on Hela cells (2 nM, 80 s); 64.56% in the test with Hela cells (5 nM, 20 s); 64.88% with Hela cells (5 nM, 40 s). Further, the “Fluorescence recovery rate %” value in the test on Hela cells (5 nM, 60 s) came to 64.78%; in the test with Hela cells (5 nM, 80 s), 65.09%; in the test on Hela cells (10 nM, 20 s), 63.99%; with Hela cells (10 nM, 40 s), 64.23%; with Hela cells (10 nM, 60 s) it was 64.45%; in the test with Hela cells (10 nM, 80 s), 64.66%. Moreover, the “Fluorescence recovery rate %” value came to 66.09% in the test on Hela cells (50 nM, 20 s); 66.42% with Hela cells (50 nM, 40 s); 66.89% in the test on Hela cells (50 nM, 60 s); 67.94% with Hela cells (50 nM, 80 s); 64.41% in the test on Hela cells (50 μM, 20 s); 70.05% in the test with Hela cells (50 μM, 40 s). The “Fluorescence recovery rate %” value in the test with Hela cells (50 μM, 60 s) was found to be 74.65%; in the test with Hela cells (50 μM, 80 s) it was 80.36%; in the test on Hela cells (100 μM, 20 s) it was 65.77%; in the test with Hela cells (100 μM, 40 s), 71.36%; in the test on Hela cells (100 μM, 60 s) it was 76.81%; in the test on Hela cells (100 μM, 80 s), 79.79%. Moreover, the Fluorescence intensity in the test with Neocopyovirus turned out to be 2.9 ± 0.22; in the test on 293T cells (2 nM) it was 108.61 ± 5.68; in the test on 293T cells (5 nM), 68.71 ± 4.36; in the test with 293T cells (10 nM), 68.98 ± 8.56; with 293T cells (50 nM) it was 50.66 ± 5.66; in the test on 293T cells (100 nM), 44.30 ± 6.35. Further, the Fluorescence intensity in the test on 293T cells (1 uM) was found to be 215.30 ± 5.36; in the test with 293T cells (10 uM), 349.34 ± 9.48; in the test with 293T cells (50 uM), 21.83 ± 1.85; in the test with 293T cells (100 uM), 2.79 ± 0.22.
Regarding Glucosamine-erucic acid, the “Inhibition rate (%)” value in test [3] (2 nM) was found to be 50.54 ± 3.54%; in [3] (5 nM) it was 39.66 ± 3.66%; in test [3] (10 nM) it was 48.04 ± 7.56%; in [3] (50 nM) it was 47.33 ± 4.56%; in test [3] (100 nM), 53.86 ± 3.98%; in test [3] (1 μM), 12.07 ± 2.65%. The “Inhibition rate (%)” value in test [3] (10 μM) is 54.05 ± 5.05%; in [3] (50 μM) it was 91.44 ± 4.48%; in test [3] (100 μM) it was 99.78 ± 5.64%. Besides, the Fluorescence intensity in the test on Neocopyovirus is 6.8 ± 0.49.
Turning to Threonine-tetracosanoic acid, the “Inhibition rate (%)” value is 81.01 ± 5.26% with HIV pseudovirus (18A-41) (2 nM); 92.25 ± 5.03% in the test with HIV pseudovirus (18A-41) (5 nM); 94.06 ± 6.46% in the test with HIV pseudovirus (18A-41) (10 nM); 99.01 ± 6.33% with HIV pseudovirus (18A-41) (50 nM); 98.64 ± 5.77% with HIV pseudovirus (18A-41) (100 nM); -42.03 ± 3.83% in the test with HIV pseudovirus (18A-41) (1 μM). The “Inhibition rate (%)” value is on record as -64.26 ± 6.54% in the test with HIV pseudovirus (18A-41) (10 μM); 81.96 ± 6.75% with HIV pseudovirus (18A-41) (50 μM); 83.84 ± 3.84% in the test with HIV pseudovirus (18A-41) (100 μM, negative value = promotes infection). The molecule also had a Fluorescence intensity with Neocopyovirus of 2.9 ± 0.11.
